Tests used:
[1] = target: Cholesterol 24-hydroxylase (Homo sapiens, UniProt Q9Y6A2); test: Inhibition of CYP46A1 (unknown origin); format: ADME
[2] = target: Cholinesterase (Homo sapiens) (UniProt P06276); test: Inhibition of human BChE at 800 uM using butyrylthiocholine iodide as substrate incubated for 10 mins by Ellman's method
[3] = Antioxidant activity assessed as trolox equivalent of ORAC radical scavenging activity by ORAC assay; format: functional
[4] = test system: SARS-CoV-2; test: Antiviral activity against SARS-CoV-2; format: functional, Severe acute respiratory syndrome coronavirus 2
[5] = target: Sodium-dependent serotonin transporter (Rattus norvegicus, UniProt P31652); test: Displacement of [3H]-5HT from rat SERT expressed in CHO cells incubated for 20 mins by liquid scintillation analysis; format: cell-based
Sodium-dependent serotonin transporter, sequence (P31652 whole entry): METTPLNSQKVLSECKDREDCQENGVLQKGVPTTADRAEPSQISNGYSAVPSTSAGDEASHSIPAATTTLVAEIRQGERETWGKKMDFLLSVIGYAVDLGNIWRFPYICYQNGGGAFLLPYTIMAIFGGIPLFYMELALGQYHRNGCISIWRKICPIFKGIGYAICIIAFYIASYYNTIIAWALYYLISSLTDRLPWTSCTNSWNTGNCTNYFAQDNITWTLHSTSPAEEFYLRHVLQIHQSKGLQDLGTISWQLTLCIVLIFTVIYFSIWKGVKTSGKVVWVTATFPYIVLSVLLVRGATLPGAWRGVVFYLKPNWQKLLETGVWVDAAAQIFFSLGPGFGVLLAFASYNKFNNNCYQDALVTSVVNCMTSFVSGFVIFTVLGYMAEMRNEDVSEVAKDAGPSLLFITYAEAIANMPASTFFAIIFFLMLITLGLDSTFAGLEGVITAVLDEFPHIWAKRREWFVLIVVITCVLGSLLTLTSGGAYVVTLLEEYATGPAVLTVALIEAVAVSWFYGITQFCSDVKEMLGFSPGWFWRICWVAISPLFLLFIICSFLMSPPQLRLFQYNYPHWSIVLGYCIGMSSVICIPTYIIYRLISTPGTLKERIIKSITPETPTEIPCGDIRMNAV

[6] = Inhibition of 5HT uptake in Sprague-Dawley rat brain Synaptosome; format: subcellular

Cholesterol 24-hydroxylase, sequence (Q9Y6A2 whole entry): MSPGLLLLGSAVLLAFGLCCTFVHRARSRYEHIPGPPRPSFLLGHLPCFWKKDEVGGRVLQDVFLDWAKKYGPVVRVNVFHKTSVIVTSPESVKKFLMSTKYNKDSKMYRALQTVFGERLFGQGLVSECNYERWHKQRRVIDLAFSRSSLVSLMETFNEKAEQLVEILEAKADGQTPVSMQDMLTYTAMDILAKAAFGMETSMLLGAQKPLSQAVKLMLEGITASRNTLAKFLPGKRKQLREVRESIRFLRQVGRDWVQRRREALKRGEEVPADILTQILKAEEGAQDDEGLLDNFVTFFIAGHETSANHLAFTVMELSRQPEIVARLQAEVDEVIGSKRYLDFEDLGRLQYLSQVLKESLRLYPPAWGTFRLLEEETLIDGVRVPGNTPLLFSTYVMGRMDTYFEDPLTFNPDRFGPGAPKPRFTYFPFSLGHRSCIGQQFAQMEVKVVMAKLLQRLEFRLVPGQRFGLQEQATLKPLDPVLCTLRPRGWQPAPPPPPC
Cholinesterase (Homo sapiens), sequence (P06276 whole entry): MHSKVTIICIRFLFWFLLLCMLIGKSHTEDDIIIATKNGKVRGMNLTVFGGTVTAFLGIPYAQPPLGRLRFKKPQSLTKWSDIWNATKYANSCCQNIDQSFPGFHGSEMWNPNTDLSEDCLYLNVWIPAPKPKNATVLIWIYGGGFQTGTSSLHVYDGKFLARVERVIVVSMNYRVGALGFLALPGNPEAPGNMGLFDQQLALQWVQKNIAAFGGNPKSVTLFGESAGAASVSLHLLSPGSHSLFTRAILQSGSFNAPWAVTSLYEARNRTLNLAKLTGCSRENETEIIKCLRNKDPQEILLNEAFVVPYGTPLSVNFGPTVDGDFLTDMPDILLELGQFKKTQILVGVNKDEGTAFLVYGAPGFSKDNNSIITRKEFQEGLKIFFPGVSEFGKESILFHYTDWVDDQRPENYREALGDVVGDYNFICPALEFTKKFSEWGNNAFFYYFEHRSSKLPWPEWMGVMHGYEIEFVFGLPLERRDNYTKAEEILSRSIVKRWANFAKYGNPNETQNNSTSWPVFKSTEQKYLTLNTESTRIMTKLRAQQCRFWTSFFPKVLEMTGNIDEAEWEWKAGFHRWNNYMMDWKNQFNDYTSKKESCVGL

O=C(/C=C/c1ccc(O)c(O[C@@H]2O[C@H](CO)[C@@H](O)[C@H](O)[C@H]2O)c1)NCCCNCCCCNC(=O)CCc1ccc(O)c(O)c1 showed a Ki [1] of 12.9 nM.
In the case of O=C(/C=C/c1ccc(O[C@@H]2O[C@H](CO)[C@@H](O)[C@H](O)[C@H]2O)c(O)c1)NCCCNCCCCNC(=O)CCc1ccc(O)c(O)c1, the Ki [1] is reported as 106 nM.
In the case of O=C1CCc2cc(O)c(O)cc2[C@@H](c2ccc(O)c(O)c2)CC(=O)NCCCCNCCCN1, the inhibition [2] is reported as 37.8% and the Activity [3] is reported as 2.68 µM.
With NCCCCNCCCN [SPERMIDINE] the “inhibition (INH)” value [4] was 85%.
Compound O=C1CCc2cc(O)c(O)cc2[C@H](c2ccc(O)c(O)c2)CC(=O)NCCCCNCCCN1 has an inhibition [2] of 18.1% and an Activity [3] of 2.37 µM.
For O=C(/C=C/c1ccc(O)cc1)NCCCCN(CCCNC(=O)/C=C/c1ccc(O)cc1)C(=O)/C=C\c1ccc(O)cc1, the IC50 [5] was 740 nM and the IC50 [6] was 1070 nM.
Work on O=C(/C=C/c1ccc(O)c(O)c1)NCCCNCCCCNC(=O)CCc1ccc(O[C@@H]2O[C@H](CO)[C@@H](O)[C@H](O)[C@H]2O)c(O)c1 yielded a Ki [1] of 258 nM.
